{
  "source": "paper PMC5750217",
  "about": "(Nature Communications, 2018)",
  "key": {"ASCT2": {"molecular_target": "T1, ASCT2 (Homo sapiens, UniProt Q15758)", "T1 sequence (Q15758 1-541)": "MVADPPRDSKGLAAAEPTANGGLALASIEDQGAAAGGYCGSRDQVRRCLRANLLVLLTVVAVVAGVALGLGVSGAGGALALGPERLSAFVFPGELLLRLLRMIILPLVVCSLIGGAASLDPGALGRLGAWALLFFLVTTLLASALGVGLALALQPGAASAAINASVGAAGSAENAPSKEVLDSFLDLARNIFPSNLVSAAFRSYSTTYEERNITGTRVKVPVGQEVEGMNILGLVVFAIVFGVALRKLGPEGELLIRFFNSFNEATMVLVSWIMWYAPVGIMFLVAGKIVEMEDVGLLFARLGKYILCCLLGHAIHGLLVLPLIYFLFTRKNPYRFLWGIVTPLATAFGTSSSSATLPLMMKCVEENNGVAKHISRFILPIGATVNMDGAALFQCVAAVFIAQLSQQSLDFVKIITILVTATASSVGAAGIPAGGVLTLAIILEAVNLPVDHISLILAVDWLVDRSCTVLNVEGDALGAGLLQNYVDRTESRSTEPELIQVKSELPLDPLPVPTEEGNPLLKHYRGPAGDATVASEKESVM", "test": "Radiolabelled uptake in oocytes expressing ASCT2", "format": "cell-based", "settings": "10 µM radiolabelled substrate, 10 min, room temperature", "protocol": "Uptake of L-[^3H]amino acids (PerkinElmer Life Sciences) was measured in oocytes expressing wild-type and mutant ASCT1, and uninjected oocytes. Five oocytes were incubated in Cl^−-containing buffer with 10 µM L-[^3H]amino acids at room temperature. After 10 min, uptake was terminated by three rapid washes in ice-cold Cl^−-containing buffer followed by lysis in 50 mM NaOH and 1% SDS. L-[^3H]amino acids were measured by scintillation counting using a Trilux beta counter (PerkinElmer Life Sciences).\nSupplementary Figure 6. GltPh‐R397C, ASCT1 and ASCT2 are functional cysteine transporters. (a) […]\n7.5) containing 1 µM of valinomycin and the 10µM 35S‐cysteine. […]\n(1 picture or pasted object on this page, not shown here)"}, "[1]": {"molecular_target": "T2, A2-S481T/C482T (mutant ASCT2) (Homo sapiens, UniProt Q15758, C467T/S466T)", "T2 construct": "expressed in transfected cells; host or cells: Xenopus laevis oocytes (cRNA injection)", "T2 sequence (Q15758 1-541 S466T/C467T)": "T1 sequence (Q15758 1-541) with S466T, C467T", "test": "Two electrode voltage clamp, substrate-activated anion current in oocytes expressing A2-S481T/C482T", "format": "cell-based", "protocol": "All chemicals were obtained from Sigma unless otherwise stated. Stage V oocytes were harvested from female Xenopus laevis (frogs) which were obtained from Nasco (Fort Alkinson, USA). Frogs were anaesthetised with 6.5 mM tricaine neutralised with 7.14 mM sodium bicarbonate. After making an incision in the abdomen of the frog, ovarian sacs were removed and stored in OR-2 buffer (82.5 mM NaCl, 2 mM KCl, 1 mM MgCl2, 5 mM hemisodium HEPES, pH 7.5). This surgical procedure follows a protocol (#2016/970) approved by the University of Sydney Animal Ethics Committee under the Australian Code of Practice for the Care and Use of Animals for Scientific Purposes. To isolate oocytes, the ovarian sacs were cut into small sections before being digested by agitation with 2 mg per ml Collagenase A for 1–2 h. Following digestion, defoliculated oocytes were initially rinsed with OR-2, followed by frog Ringer’s solution (96 mM NaCl, 2 mM KCl, 1 mM MgCl2, 1.8 mM CaCl2, 5 mM hemisodium HEPES, pH 7.5). A total of 20 ng of transporter cRNA was injected into oocytes which were stored in frog Ringer’s solution supplemented with 0.1% gentamycin, 50 μg per ml tetracycline, 2.5 mM pyruvate and 0.5 mM theophylline at 16–18 °C.\nAfter 2–4 days of microinjection, current recordings were made using the two electrode voltage clamp technique with a Geneclamp 500 amplifier (Axon Instruments, Foster City, CA) interfaced with a MacLab 2e chart recorder (ADI Instruments, Sydney, Australia) using the chart software, and a Digidata 1322A (Axon Instruments) controlled by an IBM-compatible computer using the pClamp software (version 10, Molecular Devices, Union City, CA). The current–voltage relationships for substrate elicited conductances were obtained by subjecting cells to 200 ms voltage pulses between −100 mV and + 60 mV in 10 mV steps. Current–voltage relationships were calculated by subtracting steady state current measurements in the absence of substrate from corresponding current measurements in the presence of substrate. […]"}, "[2]": {"settings": "A2-S481T/C482T in oocytes, NO3−-containing buffer, current at +60 mV, dash = substrate did not generate currents"}},
  "note": "Changes are numbered by the printed parent chain.",
  "data": [
    {"smiles": "NC(=O)CC[C@H](N)C(=O)O", "note": "[L-glutamine]", "values": [
      {"measurement": "Radiolabelled substrate uptake into oocytes (in words)", "setting": "ASCT2", "result": "robust L-[^3H]glutamine uptake"},
      {"measurement": "EC50 of substrate-activated current", "setting": "[1]; [2]", "result": "did not generate any currents"}
    ]},
    {"smiles": "N[C@@H](CS)C(=O)O", "note": "[L-cysteine]", "values": [
      {"measurement": "Radiolabelled substrate uptake into oocytes (in words)", "setting": "ASCT2", "result": "robust L-[^35S]cysteine uptake"}
    ]},
    {"smiles": "N[C@@H](CCC(=O)Nc1ccc([N+](=O)[O-])cc1)C(=O)O", "note": "[GPNA, glutamyl-p-nitroanilide]", "values": [
      {"measurement": "GPNA % inhibition of L-serine activated current", "setting": "[1]; A2-S481T/C482T, GPNA co-applied with EC50 of L-serine, 1 mM GPNA (Table 1 footnote)", "result": "20 ± 3", "unit": "%"}
    ]},
    {"smiles": "N[C@@H](CO)C(=O)O", "note": "[L-serine]", "values": [
      {"measurement": "Radiolabelled substrate uptake into oocytes (in words)", "setting": "ASCT2", "result": "observe L-[^3H]serine uptake"},
      {"measurement": "EC50", "setting": "[1]; [2]", "result": "61 ± 7", "unit": "µM"}
    ]}
  ]
}
